The numbers were not newly measured in patent publication US20240408173A1, “SILK FIBROIN-CONTAINING COMPOSITION AND METHODS OF USE THEREOF” (Georgetown University, priority 2017, published 2024), which cites them from elsewhere.

SMILES strings stand for the structures.

Take `FC(F)(F)C(F)(F)C(F)(F)C(F)(F)C(F)(F)C(F)(F)C(F)(F)C(F)(F)Br` [PFC, perfluorooctylbromide]: the Water solubility entry is given as “No”.
